Data reported in patent US20260207600A1, “METHODS OF TREATMENT WITH MYOSIN MODULATOR” (MYOKARDIA, INC., priority 2019, published 2026).
Values after ≈ are worked out from the molar mass of the structure shown.

Legend:
[1] = API thermodynamic solubility; type: physicochemical; details: thermodynamic from solid
[2] = system: subjects with obstructive HCM; details: human, in vivo; cited from earlier work
[3] = Stable form analysis (slurry experiments, XRPD); type: physicochemical; details: for XRPD Result (stable form screening): Lot 2-4
Description: Slurrying. Slurries of the API were prepared by adding sufficient solids to a given solvent or solvent system at ambient conditions or at elevated temperature such that undissolved solids were present. The mixtures were then agitated in a closed vial at ambient or elevated temperature for an extended period of time. Solids were collected by vacuum filtration and analyzed.
A stable form analysis of the API (Lot 2-4) was performed to identify the preferred solid form within typical process conditions (e.g., ambient to 85° C., atmospheric pressure, with a variety of solvents including water).
A total of 17 slurries were held stirring at ambient temperature or with temperature cycling between 20 and 30 or 40° C. (with a few brief exposures to approximately 46° C.) for extended time periods (Table 13.4). Solids from the slurry experiments were filtered, air-dried, then analyzed by XRPD.

[4] = system: conscious Sprague-Dawley rats; assay: Positive inotropic challenge (dobutamine, levosimendan) after supra-therapeutic mavacamten, echocardiography; type: in vivo, rat; details: supra-therapeutic dose, healthy rats
Description: Methods: The responsiveness of mavacamten-induced cardio-depression to positive inotropic challenges was assessed in a set of conscious Sprague-Dawley rats. In these animals, functional reserve was assessed via either dobutamine (+DOB, 10 μg/kg/min IV for 10 min, n=7) or levosimendan (+LEVO, 0.3 μmol/kg IV over […]; n=6) challenges given 3 hrs following a single-dose administration of MAVA (at 4 mg/kg, PO). Cardiac function/geometry were recorded and compared at three separate time-points/days: prior to dosing (i.e., at baseline) and at 3 hrs post-dosing both before as well as during the inotropic challenge; in order to account for the levosimendan-induced changes in loading conditions, an additional echocardiographic examination was performed following acute preload-restoration in LEVO-treated rats (+LEVO/F, 0.9% NaCl at 30 mL/kg/hr IV).
In these experiments, left-ventricular fractional shortening (FS), an index of systolic performance, as well as LV dimensions/volumes and heart rates were measured using a high-frequency transducer and parasternal long-axis transthoracic views (Vevo2100, VisualSonic). FS was defined as the end-diastole normalized change in internal dimensions/diameter of the left ventricle between end-systole (LVESd) and end-diastole (LVEDd) (i.e., FS=100·[LVEDd−LVESd]/LVEDd). LV volumes were derived assuming a Teichholz model (LVV=7·[2.4+LVid]−1·LVid3).

CYP2J2 = target: T1, CYP2J2 (Homo sapiens, UniProt P51589); assay: In vitro contribution of CYP enzymes to mavacamten metabolism; type: in vitro ADME
T1 sequence (P51589 1-502): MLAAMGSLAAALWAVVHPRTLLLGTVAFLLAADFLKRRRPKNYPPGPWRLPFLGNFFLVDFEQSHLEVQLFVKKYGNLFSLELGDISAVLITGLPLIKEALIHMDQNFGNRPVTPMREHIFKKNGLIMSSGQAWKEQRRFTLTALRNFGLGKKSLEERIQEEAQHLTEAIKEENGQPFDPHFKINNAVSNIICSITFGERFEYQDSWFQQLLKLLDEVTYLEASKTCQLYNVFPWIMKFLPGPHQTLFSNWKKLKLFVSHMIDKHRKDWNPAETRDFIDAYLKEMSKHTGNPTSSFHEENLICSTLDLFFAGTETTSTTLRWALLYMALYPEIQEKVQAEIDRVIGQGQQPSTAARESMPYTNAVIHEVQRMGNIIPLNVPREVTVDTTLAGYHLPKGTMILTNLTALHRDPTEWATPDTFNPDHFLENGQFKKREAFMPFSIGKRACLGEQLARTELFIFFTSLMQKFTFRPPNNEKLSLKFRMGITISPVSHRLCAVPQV

## CC(C)n1c(=O)cc(N[C@@H](C)c2ccccc2)[nH]c1=O [mavacamten, (S)-3-Isopropyl-6-((1-phenylethyl)amino)pyrimidine-2, 4(1H,3H)-dione]
[1]; DCM, organic solvent or mixture
  solubility thermodynamic: 1100 µg/mL (≈ 4.02 mM)
[1]; DMF, organic solvent or mixture
  solubility thermodynamic: ~130000 µg/mL (≈ 476 mM)
[1]; DMSO, organic solvent or mixture
  solubility thermodynamic: > 150000 µg/mL
[1]; EtOAc, organic solvent or mixture
  solubility thermodynamic: 1000 µg/mL (≈ 3.66 mM)
[1]; EtOH, organic solvent or mixture
  solubility thermodynamic: 7400 µg/mL (≈ 27.1 mM)
[1]; NMP, organic solvent or mixture
  solubility thermodynamic: > 150000 µg/mL
[1]; acetone, organic solvent or mixture
  solubility thermodynamic: 3300 µg/mL (≈ 12.1 mM)
[1]; acetonitrile, organic solvent or mixture
  solubility thermodynamic: 900 µg/mL (≈ 3.29 mM)
[1]; diethyl ether, organic solvent or mixture
  solubility thermodynamic: 50 µg/mL (≈ 0.183 mM)
[1]; hexanes, organic solvent or mixture
  solubility thermodynamic: < 10 µg/mL
[1]; n-heptanes, organic solvent or mixture
  solubility thermodynamic: < 10 µg/mL
[1]; n-hexane, organic solvent or mixture
  solubility thermodynamic: < 10 µg/mL
[1]; p-dioxane, organic solvent or mixture
  solubility thermodynamic: 1200 µg/mL (≈ 4.39 mM)
[1]; water
  solubility thermodynamic: 10 µg/mL (≈ 0.0366 mM)
[2]
  Obstruction of the left ventricular outflow tract: reduced or eliminated the obstruction of the left ventricular outflow tract
[3]; 17 slurries, ambient temperature or cycling between 20 and 30 or 40° C., extended time
  solid form obtained from slurry experiments (XRPD): All slurry experiments yielded Form A, except one with chloroform
[3]; Anisole, Slurry, ~50° C., 4 d
  XRPD Result (stable form screening): Form A
[3]; CHCl3, TC, 20 to 30° C., 10 d
  XRPD Result (stable form screening): Form A +
[3]; DCM, Slurry, RT, 17 d
  XRPD Result (stable form screening): Form A
[3]; DMF:CHCl3 (20:80), Slurry, RT, 17 d
  XRPD Result (stable form screening): Form A
[3]; DMF:EtOH (20:80), Slurry, RT, 17 d
  XRPD Result (stable form screening): Form A
[3]; DMSO:water (90:10), Slurry, RT, 3 d, TC, 20 to 30° C., 10 d
  XRPD Result (stable form screening): Form A
[3]; EtOAc, TC 20 to 40° C., 10 d
  XRPD Result (stable form screening): Form A
[3]; EtOH, TC 20 to 40° C., 10 d
  XRPD Result (stable form screening): Form A
[3]; HFIPA:acetone (10:90), Slurry, RT, 17 d
  XRPD Result (stable form screening): Form A
[3]; MIBK, Slurry, ~80° C., 1 d
  XRPD Result (stable form screening): Form A
[3]; MeOH, Slurry, RT, 3 d, TC, 20 to 30° C., 10 d
  XRPD Result (stable form screening): Form A
[3]; NMP:MeOH (10:90), Slurry, RT, 17 d
  XRPD Result (stable form screening): Form A
[3]; NMP:toluene (80:20), Slurry, RT, 17 d
  XRPD Result (stable form screening): Form A
[3]; NMP:water (50:50), Slurry, RT, 17 d
  XRPD Result (stable form screening): Form A
[3]; THF:water (75:25), TC, 20 to 30° C., 10 d
  XRPD Result (stable form screening): Form A
[3]; THF, Slurry, RT, 3 d, TC, 20 to 40° C., 10 d
  XRPD Result (stable form screening): Form A
[3]; iPrOH, TC, 20 to 40° C., 10 d
  XRPD Result (stable form screening): Form A
[4]
  reduction in ejection fraction: ~50%
CYP2J2
  percent contribution to the metabolism of mavacamten: negligible
